This is an account of results in patent US8685974B2 (Bayer CropScience AG, priority 2009, dated 2014).

Where two headings read alike, the source gives them in different places. Marks after values point to notes of the source that are not given here.

For series [1] the following is noted: method [c]: LC-MS at pH 7.8, 0.001 molar ammonium hydrogen carbonate, gradient 10% to 95% acetonitrile.
Series [2] deals with Peronospora parasitica. Description: In vivo test on Peronospora parasitica (crucifer downy mildew). The note with it: dose of 500 ppm; cabbage plants; grading 5 days after contamination. The procedure: In Vivo Test on Peronospora parasitica (Crucifer Downy Mildew)
The active ingredients tested are prepared by homogenization in a mixture of acetone/Tween/DMSO, then diluted with water to obtain the desired active material concentration.
Cabbage plants (Eminence variety) in starter cups, sown on a 50/50 peat soil-pozzolana substrate and grown at 18-20° C., are treated at the cotyledon stage by spraying with the aqueous suspension described above.
(§1) Plants, used as controls, are treated with an aqueous solution not containing the active material.
After 24 hours, the plants are contaminated by spraying them with an aqueous suspension of Peronospora parasitica spores (50 000 spores per ml). The spores are collected from infected plant.
The contaminated cabbage plants are incubated for 5 days at 20° C., under a humid atmosphere.
Grading is carried out 5 days after the contamination, in comparison with the control plants.

In series [3] the test system is Botrytis cinerea. Description: In vivo test on Botrytis cinerea (grey mould). The conditions noted are these: dose of 500 ppm; gherkin plants; grading 5/7 days after contamination. The procedure: In Vivo Test on Botrytis cinerea (Grey Mould)
The active ingredients tested are prepared by homogenization in a mixture of acetone/Tween/DMSO, then diluted with water to obtain the desired active material
Gherkin plants (Vert petit de Paris variety), sown on a 50/50 peat soil-pozzolana substrate in starter cups and grown at 18-20° C., are treated at the cotyledon Z11 stage by spraying with the active ingredient prepared as described above.
as §1
After 24 hours, the plants are contaminated by depositing drops of an aqueous suspension of Botrytis cinerea spores (150,000 spores per ml) on upper surface of the leaves. The spores are collected from a 15-day-old culture and are suspended in a nutrient solution composed of: • 20 g/L of gelatine; • 50 g/L of D-fructose; • 2 g/L of NH4NO3; • 1 g/L of KH2PO4.
The contaminated cucumber plants are settled for 5/7 days in a climatic room at 15-11° C. (day/night) and at 80% relative humidity.
Grading is carried out 5/7 days after the contamination, in comparison with the control plants.

In series [4] the test system is Pyrenophora teres. Description: In vivo test on Pyrenophora teres (barley net blotch). The note with it: dose of 500 ppm; barley plants; grading 12 days after contamination. Put shortly: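 Scoring is done 12 days after spore spraying (12,000 spores/ml, from 12-day-old culture), relative to water-treated controls. Inoculation follows by 24 h a preventive spray of the aqueous-diluted formulation onto 1-leaf Plaisant barley raised at 12° C.; infection holds 24 h at about 20° C./100% RH, then 12 days at 80% RH.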

Series [5] deals with Puccinia recondita. Put plainly: In vivo test on Puccinia recondita (brown rust). The note with it: dose of 500 ppm; wheat plants; grading 10 days after contamination. Put shortly: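 Compounds in acetone/tween/DMSO diluted in water, sprayed on 1-leaf wheat (Scipion, grown at 12° C.); 24 h later inoculated with Puccinia recondita spores (100,000 spores per ml). Incubated 24 h at 20° C./100% RH, then 10 days at 20° C./70% RH; disease graded 10 days post-inoculation versus untreated controls.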

The subject of series [6] is Phakopsora pachyrhizi. The note with it: 250 ppm active substance; protective; assessment 11 days after inoculation.
The conditions of series [7]: pH 2.7.
Series [8] concerns Fusarium graminearum. The series is classed as cell-based. The note with it: 50 μM.

Regarding `CCC(C)n1cc(-c2ccnc(N=C(c3ccccc3)c3ccccc3)c2)c(-c2ccc(Cl)s2)n1` (stereo not shown) [Example 308], the log p in series [1] was 6.5^[c].

Turning to `CCC(C)n1cc(-c2ccncc2)c(-c2ccc(Cl)s2)n1` (stereo not shown) [Example 8], the protection in series [2] is listed as 92%; in series [3] it was 100%; in series [4], 100%; in series [5], 86%. For the same compound, the activity level in series [6] was determined as 98%. Moreover, the log p in series [7] was 2.1^[b].

Take `CCC(C)n1cc(-c2ccnc(N)c2)c(-c2ccc(Cl)s2)n1` (stereo not shown) [Example 317]: the “% Inhibition of fungal growth at 50 μM” value in series [8] amounted to 78%. Also, in series [8] (7 days at 28° C.), the “% Inhibition of DON/AcDON at 50 μM” value turned out to be 100%. The log p in series [1] was 3.31^[c].
